Assay [1] deals with synthetic mixed culture resembling a skin microbiome (core microbiome model, strain mix ratio 1). Briefly: Anaerobic cultivation of core skin microbiome model (ratio 1) with test compound. Format: cell-based. The conditions noted are these: ratio 1, compound added at T=0, T=22 h. The procedure:
Preculture cultivation and ratio mixing is carried out as in example 1. Anaerobic cultivation is done using a BioLector [[…]-labs; Arnold-Sommerfeld-Ring 2, 52499 Baesweiler] small scale test system with MTP-48-BOH 1 plates and the anaerobic module including an external mass flow controller for nitrogen (N2). 100 μl of strain mix, according to the ratios in table 2 are added to 1 ml BHI media resulting in a starting OD600 of 0.091. Cultivation is done at 37° C., a shaking frequency of 600 rpm and under nitrogen flushing for 22 h until the process is stopped. Preculture cultivation, ratio mixing and cultivation is carried out as in example 1 or 2. Test compounds are added to the cultures at T=0, 4, 8, 12, 16, or 24 h. At the end of the cultivation samples are taken and processed as in example 1 or 2 and results are compared to non-treated cultures to evaluate the effect of the test compounds on the core microbiome model.

Assay [2] has the same test system. Briefly: Aerobic cultivation of core skin microbiome model (ratio 1) with test compound, 16S rRNA sequencing. The format is cell-based. The conditions noted are these: ratio 1, compound added at T=0, T=28 h. The procedure: Individual bacterial strains are inoculated from cryocultures to initiate preculture growth. BHI Media (110493; Merck KGaA, 64293 Darmstadt) or DSMZ media 92 or DSMZ media 535 media according to the recommendations of the German Collection of Microorganisms and Cell Cultures GmbH are used for preculture cultivation. At the end of cultivation strains are diluted to result in an optical density of OD600=1 using BHI media. These single strain cultures are mixed in defined strain ratios depending on their growth properties. Cultivation is carried out using a BioLector [[…]-labs; Arnold-Sommerfeld-Ring 2, 52499 Baesweiler] small scale test system with MTP-48-BOH 1 plates. 100 μl of strain mix, according to the ratios in table 2 are added to 1 ml BHI media in resulting in a starting OD600 of 0.091. Cultivation is done at 37° C., a shaking frequency of 600 rpm and relative humidity of 85% for 28 h until the process is stopped. At the end of cultivation OD600 is determined, and the remaining culture is centrifuged at 4° C., 5000 rpm and 5 min in an Eppendorf table centrifuge. The supernatant is discarded, and the pellet is stored at -20° C. Genomic DNA is extracted from these samples using the DNeasy PowerSoil Pro Kit [Qiagen GmbH, QIAGEN Strasse 1, 40724 Hilden]. DNA samples are analyzed by LGC Genomics GmbH [Ostendstraße 25, 12459 Berlin] using primer pair 341 F, Seq. ID NO 1, and […], Seq. ID NO 2, or library preparation and […] MiSeq for sequencing. Results are processed by LGC Genomics GmbH and mapped to an individual reference database containing the sequences of the strains which are present in the individual model. Preculture cultivation, ratio mixing and cultivation is carried out as in example 1 or 2. Test compounds are added to the cultures at T=0, 4, 8, 12, 16, or 24 h. At the end of the cultivation samples are taken and processed as in example 1 or 2 and results are compared to non-treated cultures to evaluate the effect of the test compounds on the core microbiome model.

Turning to sodium lauryl ether sulfate, the “general trends compared with aerobic conditions” value in assay [1] is “remain the same”. In assay [2] (species other than S. warneri (and S. capitis for the lysate)), the “abundance of all other species” value was “at the expense of all other Staphylococcus species”. For the same compound, in assay [2] (vs non-treated culture), the “abundance of S. warneri” value is listed as “significantly increased abundance”, the microbial diversity entry is reported as “remarked loss of diversity” and the “shift compared to the baseline composition” value is “drastic microbial community shifts”.
Turning to `CN(CC(=O)O)C(=N)N` [Creatine], the “general trends compared with aerobic conditions” value in assay [1] was “remain the same”. Besides, in assay [2] (vs non-treated culture), the “relative abundance of S. aureus” value is “slightly decreased”, the “relative abundance of S. epidermidis” value is reported as “slightly increased”, the “relative abundance of S. hominis” value is “slightly increased” and the “shift compared to the baseline composition” value is on record as “minor shift”.
